The text below walks through data of patent US11932658B2 (BRISTOL-MYERS SQUIBB COMPANY, priority 2016, dated 2024).

SMILES strings stand for the structures.

In the experiment the target is T1, PAR4 (Homo sapiens, UniProt Q96RI0).
T1 construct: expressed in transfected cells; host or cells: HEK293 PAR4 Clone 1.2A (BMS Arctic ID 383940)
T1 sequence (Q96RI0 18-385): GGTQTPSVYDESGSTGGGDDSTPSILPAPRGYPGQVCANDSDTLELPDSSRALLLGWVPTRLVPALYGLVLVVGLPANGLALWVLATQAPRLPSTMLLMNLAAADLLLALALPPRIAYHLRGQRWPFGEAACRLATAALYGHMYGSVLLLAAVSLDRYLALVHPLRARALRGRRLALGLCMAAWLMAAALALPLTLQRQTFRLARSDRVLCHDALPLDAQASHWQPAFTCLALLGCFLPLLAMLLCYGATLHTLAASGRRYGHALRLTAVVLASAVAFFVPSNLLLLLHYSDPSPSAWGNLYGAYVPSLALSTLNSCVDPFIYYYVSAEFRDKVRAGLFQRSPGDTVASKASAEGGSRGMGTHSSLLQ
In words: PAR4 FLIPR assay (antagonism of agonist peptide-induced calcium mobilization). It counts as cell-based. The method, boiled down: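 Antagonism was taken as block of calcium mobilization evoked by the agonist peptide H-Ala-Phe(4-F)-Pro-Gly-Trp-Leu-Val-Lys-Asn-[…]-NH2, added after 30 min room-temperature compound preincubation in dye-loaded PAR4-transfected HEK293 cells (endogenous PAR1). Fluorescence was read on FDSS, with compound addition alone used as the agonist counter-screen; values come from 11-point concentration-response curves.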
Consider `COc1cnc2c(-c3nc4c(C)cc5c(c4s3)OC[C@H](COC(=O)Nc3ccc(-n4cnc(C)n4)nc3)O5)cc(C)cc2n1` [Example 55, (R)-(2-(2-methoxy-7-methylquinoxalin-5-yl)-4-methyl-7,8-dihydro-[1,4]dioxino [2′,3′:3,4]benzo[1,2-d]thiazol-7-yl)methyl (6-(3-methyl-1H-1,2,4-triazol-1-yl)pyridin-3-yl)carbamate], for which the IC50 was 21 nM.
Consider `COc1cnc2c(-c3nc4c(C)cc5c(c4s3)OC[C@H](COC(=O)Nc3ccc(C)nc3)O5)cc(C)cc2n1` [Example 56, (R)-(2-(2-methoxy-7-methylquinoxalin-5-yl)-4-methyl-7,8-dihydro-[1,4]dioxino[2′,3′:3,4]benzo[1,2-d]thiazol-7-yl)methyl (6-methylpyridin-3-yl)carbamate], for which the IC50 stood at 1 nM.
The figure for `COc1cnc2c(-c3nc4c(C)cc5c(c4s3)OC[C@H](COC(=O)Nc3cncc(C)c3)O5)cc(C)cc2n1` [Example 57, (R)-(2-(2-methoxy-7-methylquinoxalin-5-yl)-4-methyl-7,8-dihydro-[1,4]dioxino[2′,3′:3,4]benzo[1,2-d]thiazol-7-yl)methyl (5-methylpyridin-3-yl)carbamate] is 9.7 nM.
The figure for `COc1cnc2c(-c3nc4c(Cl)cc5c(c4s3)OC[C@H](COC(=O)Nc3cnc(Cl)nc3)O5)cc(C)cc2n1` [Example 58, (R)-(4-chloro-2-(2-methoxy-7-methylquinoxalin-5-yl)-7,8-dihydro-[1,4]dioxino[2′,3′:3,4]benzo[1,2-d]thiazol-7-yl)methyl (2-chloropyrimidin-5-yl)carbamate] is 8.8 nM.
For the compound `COc1cnc2c(-c3nc4c(C)cc5c(c4s3)OC[C@H](COC(=O)Nc3cnc(Cl)nc3)O5)cc(C)cc2n1` [Example 59, (R)-(2-(2-methoxy-7-methylquinoxalin-5-yl)-4-methyl-7,8-dihydro-[1,4]dioxino[2′,3′:3,4]benzo[1,2-d]thiazol-7-yl)methyl (2-chloropyrimidin-5-yl)carbamate], the IC50 turned out to be 8.3 nM.
The value for `COc1cnc2c(-c3nc4c(Cl)cc5c(c4s3)OC[C@H](COC(=O)Nc3cnc(C)c(C)c3)O5)cc(C)cc2n1` [Example 60, (R)-(4-chloro-2-(2-methoxy-7-methylquinoxalin-5-yl)-7,8-dihydro-[1,4]dioxino[2′,3′:3,4]benzo[1,2-d]thiazol-7-yl)methyl (5,6-dimethylpyridin-3-yl) carbamate] was 6.9 nM; that for `COc1cnc2c(-c3nc4c(C)cc5c(c4s3)OC[C@H](COC(=O)Nc3cnc(F)c(C)c3)O5)cc(C)cc2n1` [Example 61, (R)-(2-(2-methoxy-7-methylquinoxalin-5-yl)-4-methyl-7,8-dihydro-[1,4]dioxino [2′,3′:3,4]benzo[1,2-d]thiazol-7-yl)methyl (6-fluoro-5-methylpyridin-3-yl)carbamate] was 23 nM; that for `COc1cnc2c(-c3nc4c(Cl)cc5c(c4s3)OC[C@H](COC(=O)Nc3ccc(C)nc3)O5)cc(C)cc2n1` [Example 62] was 1 nM.
The value for `COc1cnc2c(-c3nc4c(Cl)cc5c(c4s3)OC[C@H](COC(=O)Nc3cncc(C)c3)O5)cc(C)cc2n1` [Example 63] was 4.3 nM; that for `COc1cnc2c(-c3nc4c(Cl)cc5c(c4s3)OC[C@H](COC(=O)Nc3cnc(F)c(C)c3)O5)cc(C)cc2n1` [Example 64, (R)-(4-chloro-2-(2-methoxy-7-methylquinoxalin-5-yl)-7,8-dihydro-[1,4]dioxino [2′,3′:3,4]benzo[1,2-d]thiazol-7-yl)methyl (6-fluoro-5-methylpyridin-3-yl)carbamate] was 2.5 nM; that for `COc1cnc2c(-c3nc4c(Cl)cc5c(c4s3)OC[C@H](COC(=O)Nc3ccc(N(C)C)nc3)O5)cc(C)cc2n1` [Example 65, (R)-(4-chloro-2-(2-methoxy-7-methylquinoxalin-5-yl)-7,8-dihydro-[1,4]dioxino [2′,3′:3,4]benzo[1,2-d]thiazol-7-yl)methyl (6-(dimethylamino)pyridin-3-yl)carbamate] was 16 nM.
The figure for `COc1cnc2c(-c3nc4c(Cl)cc5c(c4s3)OC[C@H](COC(=O)Nc3ccc4[nH]c(=O)oc4c3)O5)cc(C)cc2n1` [Example 66, (R)-(4-chloro-2-(2-methoxy-7-methylquinoxalin-5-yl)-7,8-dihydro-[1,4]dioxino[2′,3′:3,4]benzo[1,2-d]thiazol-7-yl)methyl (2-oxo-2,3-dihydrobenzo[d]oxazol-6-yl)carbamate] is 1.5 nM; for `COc1cnc2c(-c3nc4c(Cl)cc5c(c4s3)OC[C@H](COC(=O)Nc3cnc4c(c3)ncn4C)O5)cc(C)cc2n1` [Example 67, (R)-(4-chloro-2-(2-methoxy-7-methylquinoxalin-5-yl)-7,8-dihydro-[1,4]dioxino[2′,3′:3,4]benzo[1,2-d]thiazol-7-yl)methyl (3-methyl-3H-imidazo[4,5-b]pyridin-6-yl)carbamate] it is 0.6 nM.
For the compound `COc1ccc(NC(=O)OC[C@H]2COc3c(cc(F)c4nc(-c5cc(C)cc6nc(OC)cnc56)sc34)O2)cn1` [Example 68, (R)-(4-fluoro-2-(2-methoxy-7-methylquinoxalin-5-yl)-7,8-dihydro-[1,4]dioxino[2′,3′:3,4]benzo[1,2-d]thiazol-7-yl)methyl (6-methoxypyridin-3-yl)carbamate], the IC50 came out at 1 nM.
The value for `COc1cnc2c(-c3nc4c(Cl)cc5c(c4s3)OC[C@H](COC(=O)Nc3ccc(-n4cnc(C)n4)nc3)O5)cc(C)cc2n1` [Example 69, (R)-(4-chloro-2-(2-methoxy-7-methylquinoxalin-5-yl)-7,8-dihydro-[1,4]dioxino[2′,3′:3,4]benzo[1,2-d]thiazol-7-yl)methyl (6-(3-methyl-1H-1,2,4-triazol-1-yl)pyridin-3-yl) carbamate] was 1.7 nM.
The value for `COc1cnc2c(-c3nc4c(F)cc5c(c4s3)OC[C@H](COC(=O)Nc3cccnc3)O5)cc(C)cc2n1` [Example 70, (R)-(4-fluoro-2-(2-methoxy-7-methylquinoxalin-5-yl)-7,8-dihydro-[1,4]dioxino[2′,3′:3,4]benzo[1,2-d]thiazol-7-yl)methyl pyridin-3-ylcarbamate] was 25 nM; that for `COc1cnc2c(-c3nc4c(F)cc5c(c4s3)OC[C@H](COC(=O)Nc3ccc(F)nc3)O5)cc(C)cc2n1` [Example 71, (R)-(4-fluoro-2-(2-methoxy-7-methylquinoxalin-5-yl)-7,8-dihydro-[1,4]dioxino[2′,3′:3,4]benzo[1,2-d]thiazol-7-yl)methyl (6-fluoropyridin-3-yl)carbamate] was 2.9 nM.
For `COc1cnc2c(-c3nc4c(F)cc5c(c4s3)OC[C@H](COC(=O)Nc3cccc(C#N)c3)O5)cc(C)cc2n1` [Example 72, (R)-(4-fluoro-2-(2-methoxy-7-methylquinoxalin-5-yl)-7,8-dihydro-[1,4]dioxino[2′,3′:3,4]benzo[1,2-d]thiazol-7-yl)methyl (3-cyanophenyl)carbamate], the IC50 is 7.7 nM.
The value for `COc1cnc2c(-c3nc4c(F)cc5c(c4s3)OC[C@H](COC(=O)Nc3ccncc3)O5)cc(C)cc2n1` [Example 73, (R)-(4-fluoro-2-(2-methoxy-7-methylquinoxalin-5-yl)-7,8-dihydro-[1,4]dioxino[2′,3′:3,4]benzo[1,2-d]thiazol-7-yl)methyl pyridin-4-ylcarbamate] was 12 nM.
